From US20110009616A1, “AGENT FOR PREVENTING ARTERIOSCLEROSIS” (priority 2006, published 2011)

Columns and labels:
[1] = biological target: bLOX-1 (Bos taurus, UniProt P79391); experiment: Plate assay: binding of oxidized LDL to recombinant bLOX-1 (Test Example 1); parameters: 6xHis (N); made in house; host or cells: E. coli; species or system bovine
Experimental: A LOX-1 antagonist activity of the agent for preventing arteriosclerosis obtained in the above-mentioned Example was evaluated on a LOX-1 binding inhibition rate to oxidized LDL using a recombinant LOX-1 protein obtained from E. coli.
As for the recombinant LOX-1, in cDNA of LOX-1 derived from bovine (bLOX-1) or derived from human (hLOX-1), a sequence to the C-terminal removing a transmembrane region was inserted into a pQE30 vector having a 6-histidine tag sequence (6×His) at the N-terminal (manufactured by Qiagen) so as to have a sequence aligned to a translation frame. The vector was transformed into E. coli able to be controlled by T5 promoter and the expression of each LOX-1 was induced under induction of 1 m M of isopropyl-1-thio-β-D-[…] (IPTG). After the induction of each expression at 37° C. for 3 hours, since the recombinant LOX-1 was obtained from an insoluble fraction, E. coli was lysed in a buffer containing 6 M guanidine hydrochloride and purified by affinity column chromatography using a Ni-NTA agarose column (manufactured by Qiagen) as the marker of 6×His (solvent: phosphoric acid buffer). Furthermore, each of the elution fractions containing LOX-1 was dialyzed in a 20 mM tris buffer (pH 9.0) and a 8M urea containing buffer, applied to a HiTrap Q column, an anion exchanger, (manufactured by Amersham), and eluted and purified with a linear concentration gradient of NaCl. Each of the fractions containing LOX-1 obtained above was reduced in a buffer containing excess amount of DTT (dithiothreitol), and then intramolecular S-S bonds were unwinded by a redox system using a mixture of oxidized […] low molecular thiol compounds. Each LOX-1 obtained above has a binding ability to the oxidized LDL and will be used as a LOX-1 standard for the following plate assays.
The plate assay was carried out using MaxiSorp Immuno Plate (96-well type, manufactured by NUNC). Each LOX-1 purified above was prepared with a PBS buffer so as to be 5 μg/mL, and 100 μL of the solution was applied to each well. After leaving at 4° C. overnight, each well was washed with 400 μL of a PBS buffer twice (400 μL×2) and 300 μL of a PBS buffer containing 25% BlockAce (manufactured by Dainippon Sumitomo Pharma Co., Ltd.) was applied to each well. After leaving at 4° C. overnight, each well was washed with 400 μL of a PBS buffer twice (400 μL×2), a solution of ethyl pheophorbide a was prepared with a PBS buffer containing 1% bovine serum albumin (BSA) so as to have an appropriate dilution rate, and 100 μL of the solution was applied to each well. After leaving at 4° C. overnight, each well was washed with 400 μL of a PBS buffer three times (400 μL×3), a solution of oxidized LDL was prepared with a PBS buffer so as to be 5 μg/mL, and 100 μL of the solution was applied to eachr well. After leaving at 4° C. overnight, each well was washed with 400 μL of a PBS buffer three times (400 μL×3), a horseradish peroxidase-conjugated anti-apolipoprotein B antibody (manufactured by The Binding Site) was diluted 1000 times with a PBS buffer, and 100 μL of the solution was applied to each well. After leaving at room temperature for 2 hours, each well was washed with 400 μL of a PBS buffer five times (400 μL×5), and 100 μL of a 3,3′,5,5′-tetramethylbenzidine (TMB) peroxidase-enzyme immunoassay (EIA)-substrate-kit reagent (manufactured by Bio-Rad) was applied to each well. After an appropriate reaction period, 50 μL of 2M H2SO4 was applied to each well to stop the reaction. Finally, a LOX-1 antagonist activity (an oxidized LDL binding inhibition rate to LOX-1) was determined by detection at 450 nm.

[2] = system: caveola transport pathway; experiment: Uptake of CTB, transport marker of caveola pathway, into COS-1 cells (Example 7); type: cell-based, African green monkey; settings: FIG. 6
[3] = system: smooth muscle cells; experiment: Oxidized LDL uptake into smooth muscle cells, IN Cell Analyzer (Example 8); type: cell-based; settings: FIG. 7
Experimental: As for the compounds in Examples 1 and 2 and Comparative Example 6, the abilities to suppress the oxidized LDL uptake into the smooth muscle cells were evaluated in a similar method to Example 6.
The smooth muscle cells were prepared to 1×10^5 cells/mL and seeded into a 96-well plate. After cultivating for two days, the cells were treated by each inhibitor in a similar method to Example 6. After the treatment of each inhibitor, the cells were washed with PBS three times and fixed with a 10% formalin solution at room temperature in the dark for 10 minutes. The fixed cells were washed with ultrapure water twice and the nuclei were dyed with DAPI. These cells were analyzed with “IN Cell Analyzer” (manufactured by GE Healthcare Bio-Sciences KK), and the uptake number of Dil-labeled oxidized LDL into the smooth muscle cells was divided by the number of nuclei. Furthermore, 4 fields of view per well were measured and the measurements were n=3 per treatment.

bLOX-1, sequence (P79391 57-270 limits assumed): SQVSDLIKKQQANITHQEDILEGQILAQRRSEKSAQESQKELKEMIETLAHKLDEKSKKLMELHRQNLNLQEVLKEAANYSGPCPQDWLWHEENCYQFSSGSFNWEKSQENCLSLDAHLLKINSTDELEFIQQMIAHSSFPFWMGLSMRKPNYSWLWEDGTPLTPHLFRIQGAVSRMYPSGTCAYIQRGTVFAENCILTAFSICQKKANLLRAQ

Structure (SMILES): C=Cc1c(C)c2cc3nc(c4c5[nH]c(cc6nc(cc1[nH]2)C(C)=C6CC)c(C)c5C(=O)[C@@H]4C(=O)OC)[C@@H](CCC(=O)O)[C@@H]3C [pheophorbide a]
- IC50 ([1]; concentration dependence, FIG. 2): ~100 nM
- inhibition activity on binding of oxidized LDL to bLOX-1 (ranking among actives) ([1]; final concentration of 16 μM, FIG. 1): high inhibition activities
- binding rate of oxidized LDL to bLOX-1 (inhibition of binding) ([1]; final concentration of 16 μM, FIG. 1, control without compounds = 100): inhibit the binding significantly
- inhibition of caveola transport pathway (CTB uptake) [2]: inhibits the caveola transport pathway significantly
- ability to suppress oxidized LDL uptake in smooth muscle cells [3]: very strong ability to suppress the uptake
- suppression of oxidized LDL uptake in smooth muscle cells, compared with anti-LOX-1 antibody [3]: stronger suppression effect than that of the anti-LOX-1 antibody
